{"source": "paper PMC5429621", "about": "(Scientific Reports, 2017)", "system": "hP2X7-2Nβ 74–79 C mutants", "assay": "two-electrode voltage clamp, Xenopus oocytes", "type": "cell-based, human", "conditions": "response to EC90 ATP", "description": "The hP2X1R was a gift from Dr Lin-Hua Jiang (University of Leeds, UK) and the hP2X1R cDNA has been described previously. Chimeras were generated by megaprimer-mediated domain swapping. In addition to chimeras, point mutations, deletions and insertions were made using the QuikChange (Stratagene) or Q5 (New England Bioscience) mutagenesis kits. The production of the correct mutations and absence of coding errors was verified by DNA sequencing (Automated ABI Sequencing Service, University of Leicester, UK).\nP2XR constructs were transcribed to produce sense-strand cRNA (mMessage mMachine, Ambion, Austin, TX). […]\nTwo-electrode voltage clamp recordings were carried out using a GeneClamp 500B amplifier with a Digidata 1322 A analog to digital convertor and pCLAMP 8.2 acquisition software (Molecular Devices, Menolo Park, CA) at a holding potential of −60 mV. ATP (sodium salt, Sigma) was applied via a U-tube perfusion system for 3 s at 3–5 minute intervals to allow reproducible responses to be recorded. […]\nConcentration response curves were normalized to the maximal response and fitted with the Hill equation (variable slope) with GraphPad Prism 6 (Graphpad software, San Diego, CA). […] Any significant differences were calculated by one-way analysis of variance, followed by Bonferroni’s test (using GraphPad Prism 6). […]"}
{"smiles": "Cl.Cl.O=C(CC12CC3CC(CC(C3)C1)C2)Nc1cccc2nc(NCCNCCO)ccc12", "note": "[AZ10606120, N-[2-[[2-[(2-Hydroxyethyl)amino]ethyl]amino]-5-quinolinyl]-2-tricyclo[3.3.1.13,7]dec-1-ylacetamide dihydrochloride]", "values": [{"measurement": "level of inhibition to 30 nM AZ10606120", "value": "~ 70%"}]}
